These compounds were tested against Histone deacetylase 1 (Homo sapiens, UniProt Q13547) (assay: Inhibition Assay).
Chain of Histone deacetylase 1 (Q13547 whole entry): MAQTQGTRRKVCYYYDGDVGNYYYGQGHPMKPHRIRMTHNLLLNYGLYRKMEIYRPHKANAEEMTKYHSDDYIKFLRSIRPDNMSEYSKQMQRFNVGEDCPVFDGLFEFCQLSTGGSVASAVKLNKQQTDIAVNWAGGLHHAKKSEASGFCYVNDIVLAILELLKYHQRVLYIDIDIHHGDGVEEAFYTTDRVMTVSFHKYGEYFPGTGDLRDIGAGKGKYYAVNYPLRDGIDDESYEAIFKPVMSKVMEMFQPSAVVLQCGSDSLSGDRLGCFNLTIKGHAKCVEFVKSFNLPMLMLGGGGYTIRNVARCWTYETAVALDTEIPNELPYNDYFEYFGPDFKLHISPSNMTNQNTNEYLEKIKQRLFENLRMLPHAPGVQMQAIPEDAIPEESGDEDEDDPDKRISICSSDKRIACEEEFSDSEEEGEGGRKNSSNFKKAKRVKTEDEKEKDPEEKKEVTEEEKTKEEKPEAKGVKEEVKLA

| Compound | IC50 [nM] |
| --- | --- |
| Nc1ccccc1NC(=O)c1ccc(CNC(=O)c2cc3ccccc3[nH]2)cc1 [US9040727, V-5] | 212 |
| Nc1ccccc1NC(=O)c1ccc(CNC(=O)c2cc3ccccc3o2)cc1 [US9040727, V-8] | 732 |
| Nc1ccc(F)cc1NC(=O)c1ccc(CNC(=O)c2cc3ccccc3o2)cc1 [US9040727, V-9] | 178 |
| Nc1ccc(-c2cccs2)cc1NC(=O)c1ccc(CNC(=O)c2cc3ccccc3o2)cc1 [US9040727, V-10] | 1610 |
| Nc1ccc(-c2ccco2)cc1NC(=O)c1ccc(CNC(=O)c2nc3ccccc3[nH]2)cc1 [US9040727, V-14] | 330 |
| Nc1ccccc1NC(=O)c1ccc(CNC(=O)c2cc3cc(C(F)(F)F)ccc3[nH]2)cc1 [US9040727, V-20] | 1010 |

From BindingDB's records for patent US9040727 (Shanghai Institute of Pharmaceutical Industry, 2015)
